Laboratory results: patent US8450243B2, “Herbicidal quinoline and 1,8-naphthyridine compounds” (Syngenta Limited, priority 2009, dated 2013)

Experiments:
Assay type in all cases: in vivo
[1] = system: Abuthilon theophrasti (ABUTH); assay: Herbicidal glasshouse test, post-emergence; settings: POST Application, evaluated after 13 days; for damage to plant (100=total damage to plant; 0=no damage to plant): 250 g/ha; for pest or weed control at 250 g/ha: Abutilon theophrasti, post-emergence, 312 h, read-out: damage to plant (100=total damage to plant; 0=no damage to plant)
Protocol: (§1) Seeds of a variety of test species were sown in standard soil in pots (Alopecurus myosuroides (ALOMY), Setaria faberi (SETFA), Echinochloa crus-galli (ECHCG), Abuthilon theophrasti (ABUTH) and Amaranthus retoflexus (AMARE)). After cultivation for one day (pre-emergence) or after 8 days cultivation (post-emergence) under controlled conditions in a glasshouse (at 24/16° C., day/night; 14 hours light; 65% humidity), the plants were sprayed with an aqueous spray solution derived from the formulation of the technical active ingredient in acetone/water (50:50) solution containing 0.5% Tween 20 (polyoxyethelyene sorbitan monolaurate, CAS RN 9005-64-5). Compounds were applied at 250 g/ha. The test plants were then grown in a glasshouse under controlled conditions in a glasshouse (at 24/16° C., day/night; 14 hours light; 65% humidity) and watered twice daily. After 13 days for pre and post-emergence, the test was evaluated (100=total damage to plant; 0=no damage to plant).

[2] = system: Alopecurus myosuroides (ALOMY); assay: Herbicidal glasshouse test, post-emergence; settings: POST Application, evaluated after 13 days; for damage to plant (100=total damage to plant; 0=no damage to plant): 250 g/ha; for pest or weed control at 250 g/ha: Alopecurus myosuroides, post-emergence, 312 h, read-out: damage to plant (100=total damage to plant; 0=no damage to plant)
Protocol: as §1

[3] = system: Amaranthus retoflexus (AMARE); assay: Herbicidal glasshouse test, post-emergence; settings: POST Application, evaluated after 13 days; for damage to plant (100=total damage to plant; 0=no damage to plant): 250 g/ha; for pest or weed control at 250 g/ha: Amaranthus retroflexus, post-emergence, 312 h, read-out: damage to plant (100=total damage to plant; 0=no damage to plant)
Protocol: as §1

[4] = system: Echinochloa crus-galli (ECHCG); assay: Herbicidal glasshouse test, post-emergence; settings: POST Application, evaluated after 13 days; for damage to plant (100=total damage to plant; 0=no damage to plant): 250 g/ha; for pest or weed control at 250 g/ha: Echinochloa crus-galli, post-emergence, 312 h, read-out: damage to plant (100=total damage to plant; 0=no damage to plant)
Protocol: as §1

[5] = system: Setaria faberi (SETFA); assay: Herbicidal glasshouse test, post-emergence; settings: POST Application, evaluated after 13 days; for damage to plant (100=total damage to plant; 0=no damage to plant): 250 g/ha; for pest or weed control at 250 g/ha: Setaria faberi, post-emergence, 312 h, read-out: damage to plant (100=total damage to plant; 0=no damage to plant)
Protocol: as §1

[6] = system: Abuthilon theophrasti (ABUTH); assay: Herbicidal glasshouse test, pre-emergence; settings: PRE Application, evaluated after 13 days; for damage to plant (100=total damage to plant; 0=no damage to plant): 250 g/ha; for pest or weed control at 250 g/ha: Abutilon theophrasti, pre-emergence, 312 h, read-out: damage to plant (100=total damage to plant; 0=no damage to plant)
Protocol: as §1

[7] = system: Alopecurus myosuroides (ALOMY); assay: Herbicidal glasshouse test, pre-emergence; settings: PRE Application, evaluated after 13 days; for damage to plant (100=total damage to plant; 0=no damage to plant): 250 g/ha; for pest or weed control at 250 g/ha: Alopecurus myosuroides, pre-emergence, 312 h, read-out: damage to plant (100=total damage to plant; 0=no damage to plant)
Protocol: as §1

[8] = system: Amaranthus retoflexus (AMARE); assay: Herbicidal glasshouse test, pre-emergence; settings: PRE Application, evaluated after 13 days; for damage to plant (100=total damage to plant; 0=no damage to plant): 250 g/ha; for pest or weed control at 250 g/ha: Amaranthus retroflexus, pre-emergence, 312 h, read-out: damage to plant (100=total damage to plant; 0=no damage to plant)
Protocol: as §1

[9] = system: Echinochloa crus-galli (ECHCG); assay: Herbicidal glasshouse test, pre-emergence; settings: PRE Application, evaluated after 13 days; for damage to plant (100=total damage to plant; 0=no damage to plant): 250 g/ha; for pest or weed control at 250 g/ha: Echinochloa crus-galli, pre-emergence, 312 h, read-out: damage to plant (100=total damage to plant; 0=no damage to plant)
Protocol: as §1

[10] = system: Setaria faberi (SETFA); assay: Herbicidal glasshouse test, pre-emergence; settings: PRE Application, evaluated after 13 days; for damage to plant (100=total damage to plant; 0=no damage to plant): 250 g/ha; for pest or weed control at 250 g/ha: Setaria faberi, pre-emergence, 312 h, read-out: damage to plant (100=total damage to plant; 0=no damage to plant)
Protocol: as §1

| Structure (SMILES) | damage to plant (100=total damage to plant; 0=no damage to plant) [1] | damage to plant (100=total damage to plant; 0=no damage to plant) [2] | damage to plant (100=total damage to plant; 0=no damage to plant) [3] | damage to plant (100=total damage to plant; 0=no damage to plant) [4] | damage to plant (100=total damage to plant; 0=no damage to plant) [5] | damage to plant (100=total damage to plant; 0=no damage to plant) [6] | damage to plant (100=total damage to plant; 0=no damage to plant) [7] | damage to plant (100=total damage to plant; 0=no damage to plant) [8] | damage to plant (100=total damage to plant; 0=no damage to plant) [9] | damage to plant (100=total damage to plant; 0=no damage to plant) [10] | pest or weed control at 250 g/ha [1] | pest or weed control at 250 g/ha [2] | pest or weed control at 250 g/ha [3] | pest or weed control at 250 g/ha [4] | pest or weed control at 250 g/ha [5] | pest or weed control at 250 g/ha [6] | pest or weed control at 250 g/ha [7] | pest or weed control at 250 g/ha [8] | pest or weed control at 250 g/ha [9] | pest or weed control at 250 g/ha [10] |
| --- | --- | --- | --- | --- | --- | --- | --- | --- | --- | --- | --- | --- | --- | --- | --- | --- | --- | --- | --- | --- |
| COc1ccc(Cn2c(=O)c(C(=O)C3C(=O)CCCC3=O)cc3cc(F)cnc32)cc1 [Compound 4.17] | 70 | 0 | 50 | 80 | 60 | 70 | 0 | 90 | 70 | 20 |  |  |  |  |  |  |  |  |  |  |
| Cc1ccccc1-n1c(=O)c(C(=O)C2C(=O)CCCC2=O)cc2cc(F)cnc21 [Compound 4.22] | 80 | 80 | 70 | 70 | 80 | 90 | 90 | 100 | 100 | 100 |  |  |  |  |  |  |  |  |  |  |
| O=C1CCCC(=O)C1C(=O)c1cc2cc(F)cnc2n(-c2cccc(C(F)(F)F)c2)c1=O [Compound 4.11] | 100 | 90 | 90 | 90 | 90 | 90 | 70 | 100 | 90 | 80 |  |  |  |  |  |  |  |  |  |  |
| COc1ccc(-n2c(=O)c(C(=O)C3C(=O)CCCC3=O)cc3cc(F)cnc32)cc1 [Compound 4.18] | 80 | 80 | 80 | 80 | 80 | 90 | 70 | 90 | 100 | 70 |  |  |  |  |  |  |  |  |  |  |
| COCn1c(=O)c(C(=O)C2C(=O)CCCC2=O)cc2cc(F)c(C)nc21 [Compound 1.46] |  |  |  |  |  |  |  |  |  |  | 100% | 70% | 70% | 80% | 70% | 80% | 60% | 100% | 100% | 80% |
| COCCn1c(=O)c(C(=O)C2C(=O)CCCC2=O)cc2cc(F)c(C)nc21 [Compound 1.47] |  |  |  |  |  |  |  |  |  |  | 70% | 80% | 70% | 90% | 80% | 90% | 50% | 100% | 90% | 90% |
| O=C1CCCC(=O)C1C(=O)c1cc2cc(F)cnc2n(-c2ccc(F)cc2F)c1=O [Compound 4.35] | 80 | 90 | 90 | 90 | 80 | 100 | 90 | 100 | 100 | 100 |  |  |  |  |  |  |  |  |  |  |
